# Literature values, collected in article PMC7770833, “Design, Synthesis, and Biological Evaluation of a Series of Oxazolone Carboxamides as a Novel Class of Acid Ceramidase Inhibitors” (Journal of Medicinal Chemistry, 2020).
# pIC50: −log10 of the molar value. Where two headings read alike, the source gives them in different places.
# Tests used:
# [1] = target: human ceramidase (hCDase); conditions: in SKOV3 cells; cited from earlier work
# AC [2] = conditions: HaCaT cell lysates; cited from earlier work
# AC [3] = conditions: HL-60 cell lysates; cited from earlier work
smiles,measurement,setting,value
COc1ccc(/C=C/C(=O)c2c(-c3ccccc3)c3cc(C)ccc3[nH]c2=O)cc1 [Ceranib-1],pIC50,[1],4.26
CCCCCCCCCCCCCC(=O)N[C@H](CO)[C@H](O)c1ccc([N+](=O)[O-])cc1 [Compound B13],pIC50,AC [2],~5.00
"CCCCCCCCCCCCCC(=O)N[C@H](C)[C@@H](O)c1ccccc1 [D-e-MAPP, D-erithro-2-(N-myristoylamino)-1-phenyl-1-propanol]",pIC50,AC [3],< 3.30
